Where a SMILES comes first, the peptide text is derived from it.
Columns and labels:
[1] = molecular target: T1, Dickkopf-related protein 1 (Homo sapiens, UniProt O94907); assay: Inhibition of biotin-labeled human recombinant DKK1 assessed as reduction in DKK1 interaction with LRP-6/Fc incubated overnight by chemiluminescence based Alpha-screen assay
T1 sequence (O94907 whole entry): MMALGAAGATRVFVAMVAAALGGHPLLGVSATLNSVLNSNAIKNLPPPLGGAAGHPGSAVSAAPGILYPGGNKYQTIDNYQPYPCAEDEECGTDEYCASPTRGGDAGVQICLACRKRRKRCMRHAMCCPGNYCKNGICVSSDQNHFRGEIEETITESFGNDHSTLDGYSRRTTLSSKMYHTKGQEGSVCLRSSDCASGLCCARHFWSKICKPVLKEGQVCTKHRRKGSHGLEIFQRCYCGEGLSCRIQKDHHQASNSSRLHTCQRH

[2] = molecular target: T2, Dickkopf WNT-signaling pathway inhibitor 1 (Rattus norvegicus, UniProt A6I0Z0); assay: Inhibition of biotin-labeled rat recombinant DKK1 assessed as reduction in DKK1 interaction with LRP-6/Fc incubated overnight by chemiluminescence based Alpha-screen assay
T2 sequence (A6I0Z0 whole entry): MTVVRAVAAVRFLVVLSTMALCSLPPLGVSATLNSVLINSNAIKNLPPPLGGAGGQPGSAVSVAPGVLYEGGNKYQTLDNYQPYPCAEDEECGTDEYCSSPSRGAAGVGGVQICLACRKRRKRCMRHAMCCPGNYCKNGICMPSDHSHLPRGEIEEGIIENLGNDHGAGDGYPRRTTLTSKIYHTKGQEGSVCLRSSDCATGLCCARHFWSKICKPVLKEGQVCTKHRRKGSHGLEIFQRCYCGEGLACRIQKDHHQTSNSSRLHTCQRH

CSCC[C@H](NC(=O)[C@@H]1CCCN1C(=O)[C@H](Cc1ccc(O)cc1)NC(=O)[C@H](CS)NC(=O)[C@H](Cc1cnc[nH]1)NC(=O)[C@H](CC(N)=O)NC(=O)[C@H](CC(C)C)NC(=O)[C@H](CC(N)=O)NC(=O)CNC(=O)[C@H](CS)NC(=O)[C@H](CCC(N)=O)NC(=O)[C@H](Cc1ccccc1)NC(=O)[C@H](Cc1ccc(O)cc1)NC(=O)[C@H](CO)NC(=O)[C@H](C)NC(=O)[C@@H]1CCCN1C(=O)[C@@H](N)CS)C(=O)N[C@@H](CCC(=O)O)C(=O)N[C@@H](Cc1c[nH]c2ccccc12)C(=O)N[C@@H](CCCNC(=N)N)C(=O)N[C@@H](CS)C(=O)N[C@@H](CC(=O)O)C(=O)NCC(=O)N[C@@H](Cc1ccccc1)C(=O)N[C@@H](CCC(N)=O)C(=O)N[C@@H](CC(=O)O)C(=O)N[C@@H](CS)C(=O)N[C@H](C(=O)N[C@@H](CC(=O)O)C(=O)NCC(=O)N[C@@H](CO)C(=O)N[C@@H](CC(=O)O)C(=O)N[C@@H](CCC(=O)O)C(=O)N[C@@H](CCCCN)C(=O)NCC(=O)N[C@@H](CS)C(=O)N1CCC[C@H]1C(=O)N[C@@H](Cc1ccc(O)cc1)C(=O)N[C@@H](CCCNC(=N)N)C(=O)N[C@H](C(=O)O)[C@@H](C)O)C(C)C (H-CPASYFQCGNLNHCYPMEWRCDGFQDCVDGSDEKGCPYRT-OH)
IC50 [1]: ≤ 1 nM | IC50 [2]: ≤ 1 nM

CSCC[C@H](NC(=O)[C@@H]1CCCN1C(=O)[C@H](Cc1ccc(O)cc1)NC(=O)[C@H](CS)NC(=O)[C@H](Cc1cnc[nH]1)NC(=O)[C@H](CC(N)=O)NC(=O)[C@H](CCCCN)NC(=O)[C@H](CC(N)=O)NC(=O)[C@H](CCCNC(=N)N)NC(=O)[C@H](CS)NC(=O)[C@H](CCCCN)NC(=O)[C@H](Cc1ccccc1)NC(=O)[C@H](Cc1ccc(O)cc1)NC(=O)[C@H](CO)NC(=O)[C@@H](NC(=O)[C@@H]1CCCN1C(=O)[C@@H](N)CS)C(C)C)C(=O)N[C@@H](CCC(=O)O)C(=O)N[C@@H](Cc1c[nH]c2ccccc12)C(=O)N[C@@H](CCCNC(=N)N)C(=O)N[C@@H](CS)C(=O)N[C@@H](CC(=O)O)C(=O)NCC(=O)N[C@@H](Cc1ccccc1)C(=O)N1CCC[C@H]1C(=O)N[C@@H](CC(=O)O)C(=O)N[C@@H](CS)C(=O)N[C@@H](CCC(=O)O)C(=O)N[C@@H](CC(=O)O)C(=O)NCC(=O)N[C@@H](CO)C(=O)N[C@@H](CC(=O)O)C(=O)N[C@@H](CCC(=O)O)C(=O)N[C@@H](CCCCN)C(=O)NCC(=O)N[C@@H](CS)C(=O)N1CCC[C@H]1C(=O)N[C@@H](Cc1ccc(O)cc1)C(=O)N[C@@H](CCCNC(=N)N)C(=O)N[C@H](C(=O)O)[C@@H](C)O (H-CPVSYFKCRNKNHCYPMEWRCDGFPDCEDGSDEKGCPYRT-OH)
IC50 [1]: ≤ 1 nM | IC50 [2]: ≤ 1 nM

CSCC[C@H](NC(=O)[C@@H]1CCCN1C(=O)[C@H](Cc1ccc(O)cc1)NC(=O)[C@H](CS)NC(=O)[C@H](Cc1cnc[nH]1)NC(=O)[C@H](CCCCN)NC(=O)[C@H](Cc1ccc(O)cc1)NC(=O)[C@H](CC(N)=O)NC(=O)CNC(=O)[C@H](CS)NC(=O)[C@H](CCC(N)=O)NC(=O)[C@H](Cc1ccccc1)NC(=O)[C@H](Cc1ccc(O)cc1)NC(=O)[C@H](CO)NC(=O)[C@H](C)NC(=O)[C@@H]1CCCN1C(=O)[C@@H](N)CS)C(=O)N[C@@H](CCC(=O)O)C(=O)N[C@@H](Cc1c[nH]c2ccccc12)C(=O)N[C@@H](Cc1cnc[nH]1)C(=O)N[C@@H](CS)C(=O)N[C@@H](CC(=O)O)C(=O)NCC(=O)N[C@@H](Cc1ccccc1)C(=O)N[C@@H](CCC(N)=O)C(=O)N[C@@H](CC(=O)O)C(=O)N[C@@H](CS)C(=O)N[C@H](C(=O)N[C@@H](CC(=O)O)C(=O)NCC(=O)N[C@@H](CO)C(=O)N[C@@H](CC(=O)O)C(=O)N[C@@H](CCC(=O)O)C(=O)N[C@@H](CCCCN)C(=O)N[C@@H](C)C(=O)N[C@@H](CS)C(=O)N1CCC[C@H]1C(=O)N[C@@H](Cc1ccc(O)cc1)C(=O)N[C@@H](CCCNC(=N)N)C(=O)N[C@H](C(=O)O)[C@@H](C)O)C(C)C (H-CPASYFQCGNYKHCYPMEWHCDGFQDCVDGSDEKACPYRT-OH)
IC50 [1]: ≤ 1 nM | IC50 [2]: ≤ 1 nM

CSCC[C@H](NC(=O)[C@@H]1CCCN1C(=O)[C@H](Cc1ccc(O)cc1)NC(=O)[C@H](CS)NC(=O)[C@H](Cc1cnc[nH]1)NC(=O)[C@H](CC(N)=O)NC(=O)[C@H](CCCNC(=N)N)NC(=O)[C@H](CC(N)=O)NC(=O)[C@H](CCCNC(=N)N)NC(=O)[C@H](CS)NC(=O)[C@H](CCCNC(=N)N)NC(=O)[C@H](Cc1ccccc1)NC(=O)[C@H](Cc1ccc(O)cc1)NC(=O)[C@H](CO)NC(=O)[C@H](C)NC(=O)[C@@H]1CCCN1C(=O)[C@@H](N)CS)C(=O)N[C@@H](CCC(=O)O)C(=O)N[C@@H](Cc1c[nH]c2ccccc12)C(=O)N[C@@H](CCCNC(=N)N)C(=O)N[C@@H](CS)C(=O)N[C@@H](CC(=O)O)C(=O)NCC(=O)N[C@@H](Cc1ccccc1)C(=O)N1CCC[C@H]1C(=O)N[C@@H](CC(=O)O)C(=O)N[C@@H](CS)C(=O)N[C@@H](CCC(=O)O)C(=O)N[C@@H](CC(=O)O)C(=O)N[C@@H](C)C(=O)N[C@@H](CO)C(=O)N[C@@H](CC(=O)O)C(=O)N[C@@H](CCC(=O)O)C(=O)N[C@@H](CCCCN)C(=O)NCC(=O)N[C@@H](CS)C(=O)N1CCC[C@H]1C(=O)N[C@@H](Cc1ccc(O)cc1)C(=O)N[C@@H](CCCNC(=N)N)C(=O)N[C@H](C(=O)O)[C@@H](C)O (H-CPASYFRCRNRNHCYPMEWRCDGFPDCEDASDEKGCPYRT-OH)
IC50 [1]: ≤ 1 nM | IC50 [2]: ≤ 1 nM

CSCC[C@H](NC(=O)[C@@H]1CCCN1C(=O)[C@H](Cc1ccc(O)cc1)NC(=O)[C@H](CS)NC(=O)[C@H](Cc1cnc[nH]1)NC(=O)[C@H](CC(N)=O)NC(=O)[C@H](Cc1cnc[nH]1)NC(=O)[C@H](Cc1ccc(O)cc1)NC(=O)[C@H](CCCNC(=N)N)NC(=O)[C@H](CS)NC(=O)[C@H](CCC(N)=O)NC(=O)[C@H](Cc1ccccc1)NC(=O)[C@H](Cc1ccc(O)cc1)NC(=O)[C@H](CO)NC(=O)[C@@H](NC(=O)[C@@H]1CCCN1C(=O)[C@@H](N)CS)C(C)C)C(=O)N[C@@H](CCC(=O)O)C(=O)N[C@@H](Cc1c[nH]c2ccccc12)C(=O)N[C@@H](CCCNC(=N)N)C(=O)N[C@@H](CS)C(=O)N[C@@H](CC(=O)O)C(=O)NCC(=O)N[C@@H](Cc1ccccc1)C(=O)N1CCC[C@H]1C(=O)N[C@@H](CC(=O)O)C(=O)N[C@@H](CS)C(=O)N[C@@H](CCC(=O)O)C(=O)N[C@@H](CC(=O)O)C(=O)N[C@@H](C)C(=O)N[C@@H](CO)C(=O)N[C@@H](CC(=O)O)C(=O)N[C@@H](CCC(=O)O)C(=O)N[C@@H](CCC(=O)O)C(=O)NCC(=O)N[C@@H](CS)C(=O)N1CCC[C@H]1C(=O)N[C@@H](Cc1ccc(O)cc1)C(=O)N[C@@H](CCCNC(=N)N)C(=O)N[C@H](C(=O)O)[C@@H](C)O (H-CPVSYFQCRYHNHCYPMEWRCDGFPDCEDASDEEGCPYRT-OH)
IC50 [1]: ≤ 1 nM | IC50 [2]: ≤ 1 nM

CC[C@H](C)[C@H](NC(=O)[C@H](CC(C)C)NC(=O)[C@@H]1CCCN1C(=O)[C@H](Cc1ccccc1)NC(=O)[C@H](CS)NC(=O)[C@H](CCSC)NC(=O)[C@H](CCCCN)NC(=O)[C@H](CC(=O)O)NC(=O)[C@H](C)NC(=O)[C@H](CS)NC(=O)[C@H](CCSC)NC(=O)[C@H](Cc1ccccc1)NC(=O)[C@H](CCC(=O)O)NC(=O)[C@H](CC(N)=O)NC(=O)[C@H](CO)NC(=O)[C@@H]1CCCN1C(=O)[C@@H](N)CS)C(=O)N[C@@H](Cc1ccccc1)C(=O)N[C@@H](CC(C)C)C(=O)N[C@@H](CS)C(=O)N[C@@H](CC(=O)O)C(=O)NCC(=O)N[C@@H](CCC(=O)O)C(=O)N[C@@H](CC(N)=O)C(=O)N[C@@H](CC(=O)O)C(=O)N[C@@H](CS)C(=O)N[C@@H](CCC(=O)O)C(=O)N[C@@H](CC(=O)O)C(=O)NCC(=O)N[C@@H](CO)C(=O)N[C@@H](CC(=O)O)C(=O)N[C@@H](CCC(=O)O)C(=O)N[C@H](C(=O)N[C@@H](CC(=O)O)C(=O)N[C@@H](CS)C(=O)N1CCC[C@H]1C(=O)N[C@@H](CO)C(=O)N[C@@H](CCCNC(=N)N)C(=O)N[C@H](C(=O)O)[C@@H](C)O)C(C)C (H-CPSNEFMCADKMCFPLIFLCDGENDCEDGSDEVDCPSRT-OH)
IC50 [1]: 40 to 80 nM | IC50 [2]: 40 to 80 nM

CSCC[C@H](NC(=O)[C@@H]1CCCN1C(=O)[C@H](Cc1ccc(O)cc1)NC(=O)[C@H](CS)NC(=O)[C@H](Cc1cnc[nH]1)NC(=O)[C@H](CC(N)=O)NC(=O)[C@H](Cc1ccc(O)cc1)NC(=O)[C@H](CC(N)=O)NC(=O)[C@H](CCCNC(=N)N)NC(=O)[C@H](CS)NC(=O)[C@H](CCCCN)NC(=O)[C@H](Cc1ccccc1)NC(=O)[C@H](Cc1ccc(O)cc1)NC(=O)[C@H](CO)NC(=O)[C@H](C)NC(=O)[C@@H]1CCCN1C(=O)[C@@H](N)CS)C(=O)N[C@@H](CCC(=O)O)C(=O)N[C@@H](Cc1c[nH]c2ccccc12)C(=O)N[C@@H](CCCNC(=N)N)C(=O)N[C@@H](CS)C(=O)N[C@@H](CC(=O)O)C(=O)NCC(=O)N[C@@H](Cc1ccccc1)C(=O)N[C@@H](CCCNC(=N)N)C(=O)N[C@@H](CC(=O)O)C(=O)N[C@@H](CS)C(=O)N[C@@H](CCC(=O)O)C(=O)N[C@@H](CC(=O)O)C(=O)NCC(=O)N[C@@H](CO)C(=O)N[C@@H](CC(=O)O)C(=O)N[C@@H](CCC(=O)O)C(=O)N[C@@H](CCC(=O)O)C(=O)NCC(=O)N[C@@H](CS)C(=O)N1CCC[C@H]1C(=O)N[C@@H](Cc1ccc(O)cc1)C(=O)N[C@@H](CCCNC(=N)N)C(=O)N[C@H](C(=O)O)[C@@H](C)O (H-CPASYFKCRNYNHCYPMEWRCDGFRDCEDGSDEEGCPYRT-OH)
IC50 [1]: ≤ 1 nM | IC50 [2]: ≤ 1 nM

Reference: ChEMBL document CHEMBL4417633, “Inhibitory polypeptides specific to WNT inhibitors” (2017)
